# Measurements: US20250387428A1, “PETROLATUM-BASED PHMB COMPOSITIONS AND METHODS FOR THE TREATMENT OF INFLAMMATORY SKIN DISEASE” (priority 2024, published 2025)
# “And” between values parts separate entries of the source, which are not always exact repeats. Equal values may be shown once. “Also recorded” adds a separate entry of the source.
# System: skin of albino New Zealand White rabbits
# Assay: Rabbit skin irritation, Primary Irritation Index
# Conditions: sulfate
# Method: Within 24 hours to 4 hours before test application, the backs of female albino New Zealand White rabbits were clipped free of hair, exposing 2 test and 2 control areas on each side of the spine with a size of approximately 15 cm×15 cm. The two test sites are located on the left cranial section and the right caudal section of the dorsal region. The two control sites are located on the left caudal and right cranial section of the dorsal region. FIG. 4 depicts the arrangement of test and control sites. The exposed skin is wiped with alcohol and dried. Rabbits of acceptable skin quality were selected and used for testing.
# A 25×25 mm gauze patch saturated with 0.5 mL of 0.9% NaCl is used for the control and applied to the clipped control sites. The patches are secured using hypoallergenic, waterproof, surgical tape over the test and control sites. The animal's trunk is securely wrapped so as to maintain the position of the patches. Patches are left applied for a minimum of four hours.
# After patch removal, the test and control sites were then scored for erythema and edema at 1, 24, 48 and 72 hours after patch removal. Only the 24, 48, and 72 hour observations were scored and used for calculations. If no response was expected, testing was conducted using three animals per test article. If irritation was anticipated, one animal was tested initially. If the first animal received a score of 2 or less for either erythema or edema, 2 additional rabbits were used to conclude the test.
# This total was divided by the total number of observations. The same was done for the control sites. […] These scores for each animal were added and divided by the total number of animals to give the Primary Irritation Index. […] For any response, the Maximum Irritation Response, the time of onset of the response and the time of maximum response was recorded.
# To positively validate the test, 10% sodium dodecyl sulfate (SDS), which is a known dermal irritant, in petroleum jelly was applied to a 2.5 cm×2.5 cm gauze patch. As a negative control, 0.5 mL of 0.9% NaCl was applied to a 2.5 cm×2.5 cm gauze patch. A Primary Irritation Index in the moderate to severe range is considered a positive result. The test system and methods utilized were the same as described above.
# [1] = per rabbit, test sites, 24, 48 and 72 hour observations after patch removal, patch at least four hours
structure (smiles),measurement,setting,value
"CCCCCCCCCCCCOS(=O)(=O)[O-].[Na+] [10% SDS, sodium dodecyl sulfate]",Total Score Average,per rabbit (irritation index for each animal),Total Score Average = 6.6; also recorded: Total Score Average = 7.3; also recorded: Total Score Average = 5.3
same,ED (edema) score total,[1],19 and 21 and 14
same,ER (erythema) score total,[1],21 and 23 and 18
same,ER + ED = Total,"per rabbit, test sites, 24, 48 and 72 hour observations",40 and 44 and 32
